Reference: ChEMBL document CHEMBL1681657, “P3 optimization of functional potency, in vivo efficacy and oral bioavailability in 3-aminopyrazinone thrombin inhibitors bearing non-charged groups at the P1 position” (Bioorg Med Chem Lett, 2011)
pKi: −log10 of the molar value. Activity calls are given as the source filed them. No cut-off for these calls is given here.

Experiments:
Prothrombin = Prothrombin (Homo sapiens, UniProt P00734); assay: Inhibition of thrombin
[1] = Inhibition of trypsin
[2] = Anticoagulant activity in human […] assessed as concentration required to double activated partial […] time; assay type: functional
[3] = Half life in rat at 10 mg/kg, po; assay type: ADME, organism-based; parameters: dose 10 mg/kg, route oral; conditions: in vivo
[4] = Cmax in dog at 1 mg/kg, po; assay type: ADME, organism-based, Canis lupus familiaris; parameters: dose 1 mg/kg, route oral; conditions: in vivo
[5] = Fraction unbound in human plasma; assay type: ADME, cell-free
[6] = Cmax in rat at 10 mg/kg, po; assay type: ADME, organism-based; parameters: dose 10 mg/kg, route oral; conditions: in vivo
[7] = Half life in dog at 1 mg/kg, po; assay type: ADME, organism-based, Canis lupus familiaris; parameters: dose 1 mg/kg, route oral; conditions: in vivo
Rattus norvegicus = assay: Anticoagulant activity in iv dosed ferric chloride-induced thrombosis rat model assessed as protection against thrombotic occlusion; assay type: functional, organism-based

Row | pKi (Prothrombin) | pKi [1] | half-life [3] [h] | Cmax [4] [nM] | fraction unbound [5] | Cmax [6] [nM] | half-life [7] [h] | Compound | Activity [2] [µM] | Activity (Rattus norvegicus)
1 | 8.82 | 4.04 |  |  |  |  |  | Cc1ccc(OCC(F)(F)F)c(CNC(=O)Cn2c(C)cnc(NCCc3ccccn3)c2=O)c1 | 0.89 | 
2 | 9.12 | 4.28 |  |  |  |  |  | Cc1cnc(NCCc2ccccn2)c(=O)n1CC(=O)NCc1cc(Cl)ccc1Cl | 0.98 | 
3 | 8.52 | 4.43 | 1 | 2820 | 0.06 | 2980 | 0.867 | Cc1cnc(NCCc2ccccn2)c(=O)n1CC(=O)NCc1cccc(Cl)c1 | 1.01 | 
4 | 10.82 |  |  |  | 0.01 |  |  | Cc1cnc(NCCc2ccccn2)c(=O)n1CC(=O)NCc1cc(Cl)ccc1OCC(=O)NC1CC1 | 0.45 | 
5 | 8.89 | 3.99 |  | 2300 |  |  | 0.85 | Cc1ccc(C#N)c(CNC(=O)Cn2c(C)cnc(NCCc3ccccn3)c2=O)c1 | 0.56 | 
6 | 9.30 | 4.49 | 1.95 | 3240 |  | 1060 | 1.3 | Cc1cnc(NCCc2ccccn2)c(=O)n1CC(=O)NCc1cc(Cl)ccc1OCC(F)(F)F | 0.79 | 
7 | 8.10 | 3.04 |  |  |  |  |  | COc1ccc(C)cc1CNC(=O)Cn1c(C)cnc(NCCc2ccccn2)c1=O | 2.9 | 
8 | 8.96 | < 4.30 | 3.67 | 2520 |  | 1290 | 1.18 | Cc1ccc(Cl)cc1CNC(=O)Cn1c(C)cnc(NCCc2ccccn2)c1=O | 0.87 | 
9 | 8.80 | < 3.00 | 2.08 | 2260 |  | 2280 | 1.47 | COc1ccc(C#N)c(CNC(=O)Cn2c(C)cnc(NCCc3ccccn3)c2=O)c1 | 0.72 | 
10 | 8.96 | 4.03 |  |  |  |  |  | Cc1ccc(Cl)cc1CNC(=O)Cn1c(Cl)cnc(NCCc2cccc[n+]2[O-])c1=O | 0.69 | 
11 | 8.70 | 3.79 | 3.73 | 1480 |  | 570 | 1 | COc1ccc(Cl)cc1CNC(=O)Cn1c(C)cnc(NCCc2ccccn2)c1=O | 1.05 | 

The next lines start with the compound.

Row | Compound | pKi (Prothrombin) | pKi [1] | half-life [3] [h] | Cmax [4] [nM] | fraction unbound [5] | Cmax [6] [nM] | half-life [7] [h] | Activity [2] [µM] | Activity (Rattus norvegicus)
12 | COc1ccc(C#N)c(CNC(=O)Cn2c(Cl)cnc(NCCc3cccc[n+]3[O-])c2=O)c1 | 8.96 | 3.56 |  |  |  |  |  | 0.41 | 
13 | Cc1ccc(Cl)cc1CNC(=O)Cn1c(C)cnc(NCCC2CCCCN2)c1=O (racemic) | 8.64 | 4.42 |  |  |  |  |  | 0.44 | Active
14 | COc1ccc(Cl)cc1CNC(=O)Cn1c(C)cnc(NCCC2CCCCN2)c1=O (racemic) | 8.32 | 4.23 |  |  |  |  |  | 0.65 | Active
15 | O=C(Cn1c(Cl)cnc(NCCc2cccc[n+]2[O-])c1=O)NCc1cc(Cl)ccc1OCC(F)(F)F | 9.51 | 4.77 |  |  |  |  |  | 0.6 | 
16 | NC(C(=O)N1CCC[C@H]1C(=O)NCc1cc(Cl)ccc1OCC(=O)NC1CC1)C1CCCCC1 (single isomer, unassigned) |  |  |  |  | 0.12 |  |  | 0.42 | 
17 | COc1ccc(Cl)cc1CNC(=O)Cn1c(Cl)cnc(NCCc2cccc[n+]2[O-])c1=O | 8.74 | 4.19 |  |  |  |  |  | 0.67 | 
18 | Cc1cnc(NCCc2ccccn2)c(=O)n1CC(=O)NCc1cc(Cl)ccc1OCC(=O)NC1CCCNC1 (centres undefined) | 9.90 |  |  |  | 0.12 |  |  | 0.24 | Active
19 | O=C(Cn1c(Cl)cnc(NCCc2cccc[n+]2[O-])c1=O)NCc1cc(Cl)ccc1Cl | 9.12 | 3.86 |  |  |  |  |  | 0.65 | 
20 | COc1ccc(C#N)c(CNC(=O)Cn2c(C)cnc(NCCC3CCCCN3)c2=O)c1 (racemic) | 8.74 | 3.86 |  |  |  |  |  | 0.27 | Active
21 | COc1ccc(C#N)c(CNC(=O)Cn2c(Cl)cnc(NCCc3ccccn3)c2=O)c1 | 8.82 | < 4.00 |  |  |  |  |  | 0.83 | 
